Data from US8592403B2, “Diazepine and diazocane compounds as MC4 agonists” (Pfizer Limited, priority 2008, dated 2013).

Tests used:
MC4 receptor = MC4 receptor (Homo sapiens, UniProt P32245); assay: MC4 EC50 functional potency (protocol E of US2005/0176772 / WO 2005/077935); format: cell-based
Experimental: The compounds of formula (I) of the present invention have utility as MCR4 agonists in the treatment of various disease states.
MC5 and MC4 EC50 activity was determined as described by assay protocols D and E, respectively, in US2005/0176772 (pages 28-30).

CYP3A4 = molecular target: T1, CYP3A4 (Homo sapiens, UniProt P08684); assay: High density DDI 3 μM cocktail screen in human liver microsomes, midazolam probe; format: in vitro ADME; settings: human, liver microsomes, probe midazolam, read-out: % inhibition 3A4 @ 3 μM
T1 construct: utilizes human liver microsomes together with isoform-specific clinical drug probes; from tissue; host or cells: human liver microsomes
T1 sequence (P08684 whole entry, canonical isoform): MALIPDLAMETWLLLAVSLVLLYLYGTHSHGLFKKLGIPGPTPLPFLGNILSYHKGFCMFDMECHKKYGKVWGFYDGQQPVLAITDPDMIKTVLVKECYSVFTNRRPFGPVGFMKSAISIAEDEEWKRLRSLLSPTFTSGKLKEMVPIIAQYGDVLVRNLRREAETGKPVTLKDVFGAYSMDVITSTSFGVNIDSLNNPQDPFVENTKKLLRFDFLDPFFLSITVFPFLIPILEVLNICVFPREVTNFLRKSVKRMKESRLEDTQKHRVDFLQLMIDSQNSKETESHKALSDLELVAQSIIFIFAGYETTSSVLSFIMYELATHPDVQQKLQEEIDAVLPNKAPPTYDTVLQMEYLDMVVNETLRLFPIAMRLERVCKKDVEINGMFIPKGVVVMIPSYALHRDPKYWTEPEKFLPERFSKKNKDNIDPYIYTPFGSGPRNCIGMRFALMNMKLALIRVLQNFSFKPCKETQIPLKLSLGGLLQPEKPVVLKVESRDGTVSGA
Experimental: High Density Drug-Drug Interactions (DDI) 3 μM Cocktail Screen
A drug interaction is a situation in which a substance affects the activity of another drug, i.e. the effects are increased or decreased, or together they produce a new effect that neither produces on its own. Drug interactions may be the result of various processes but a relatively common one is where one drug affects the pharmacokinetics of another by inhibiting the cytochrome P450 that metabolises it. Because of the importance of these phenomena, assessment of the DDI potential for new chemical entities (NCEs) is considered important early on in the drug discovery process.
The DDI cocktail screen in human liver microsomes (HLM) is run in a fully automated fashion and the aim of the screen is to provide a single-point assessment of the DDI potential of new chemical entity (NCE; tested at […]) against the 4 primary cytochrome P450 enzymes, 1A2, 2D6, 2C9 and 3A4.
The substrate cocktail approach for P450 DDI utilizes human liver microsomes together with isoform-specific clinical drug probes and permits the simultaneous measurement of the inhibition of P450 1A2, 2C9, 2D6 & 3A4 activities in a single incubation. This is run in high throughput with simultaneous detection of metabolites by LC-MS/MS. This method has been thoroughly tested and evaluated using standard compounds.
Appearance of the metabolite of each substrate is measured over time in the presence and absence of the NCE (test compound/inhibitor) at a concentration of 3 μM. The compounds are assessed for their inhibitory potential as a percentage value and interpreted using the following scheme.

[1] = In vitro metabolism rate determination, human liver microsome (HLM) assay; format: in vitro ADME; settings: human, liver microsomes, read-out: HLM: Clint, app
Source text: In Vitro Metabolism Rate Determination (Human Liver Microsome (HLM); Rat Liver Microsome (RLM) Assay)
Many drugs are metabolised by the cytochrome P450 mono-oxygenase system. This enzyme is found in high concentrations in the liver and is bound to the endoplasmic reticulum of the hepatocyte. The enzyme system can be obtained in semi-purified state by the preparation of the hepatic microsomal fractions. Determining a compound's in vitro half-life in such a system provides a useful indicator of metabolic stability.
Methodology for In Vitro Rate Determination Using Hepatic & Supermix Microsomes
The method outlined below is for a total incubation volume of 1.5 ml.
1. The following mixture is prepared in a test tube:
2. Defrost microsomes at room temperature and add sufficient microsomes to give a final concentration of 0.5 nmol cytochrome P450/ml of incubation e.g. for a 1.5 ml incubation, the volume of microsomes to be added is:
3. Add sufficient MilliQ water to give a total incubation volume of 1.425 ml.
6. Add substrate to the incubation. The substrate should be at an initial concentration of 1 μM. The volume of substrate required in the remaining 1.162.5 ml incubation is calculated as follows: […]
8. Pre-incubate the tube containing the incubation mix, also positive control and no cofactor tubes in the thermostatically controlled shaking water bath set at 37° C. for approx 5 min.
9. Add NADP to initiate reaction (75 μl to each 1.162.5 ml incubation mix, 12.5 μl to positive control tube and 5 μl to no substrate tube) and take first time point immediately. The PNA positive control, no cofactor control and no substrate tubes are incubated for the total incubation time.
10. Remove 100 μl aliquots up to 9 different sampling points from 0 to 60 min (usually 0, 3, 5, 10, 15, 20, 30, 45 & 60 min) and terminate reaction. Longer incubation times can be used, but, after 120 min the microsomes deteriorate. The reaction may be terminated by addition of organic solvent, acid or base. At the end of the incubation process the no cofactor and no substrate controls in a similar manner i.e. terminate with the same reagent.
11. Analyse samples (including no cofactor and no substrate control) by a specific assay for the substrate to determine the disappearance kinetics.
Data obtained using the procedure described above can be quantified in terms of the substrates in vitro intrinsic clearance (Clint). Providing that the substrate concentration is below Km, the metabolism should be 1st order giving a log-linear plot of substrate disappearance with time.
The gradient of this line is the first order rate constant (k) for the substrate disappearance and is determined by regression analysis. This rate constant can be converted to the half-life according to the following equation.
Alternatively the rate constant can be converted to an intrinsic clearance (Clint) according to the following equation:— Clint(μl/min/mg)=(k/protein concentration in incubation (mg/ml))*1000

Sequence of MC4 receptor (P32245 whole entry): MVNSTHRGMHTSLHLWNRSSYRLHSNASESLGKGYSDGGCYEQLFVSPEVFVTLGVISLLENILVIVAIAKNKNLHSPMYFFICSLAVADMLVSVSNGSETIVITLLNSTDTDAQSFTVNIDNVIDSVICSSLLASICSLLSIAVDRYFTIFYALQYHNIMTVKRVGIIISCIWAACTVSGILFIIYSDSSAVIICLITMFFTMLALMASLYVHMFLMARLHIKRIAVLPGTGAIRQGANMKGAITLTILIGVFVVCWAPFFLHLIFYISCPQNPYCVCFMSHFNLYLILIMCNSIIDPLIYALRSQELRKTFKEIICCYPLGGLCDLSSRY

Compound	EC50 (MC4 receptor) [nM]	inhibition at 3 µM (CYP3A4) [%]	microsomal CLint at 1 μM [1] [µL/min/mg]
CC(C)(C)N1C[C@@H](C(=O)N2CCC[C@@H](c3ccc(Cl)cc3)N(C(=O)C3CC(F)(F)C3)CC2)[C@H](c2ccc(Cl)cn2)C1 [Example 63]	85.3	55.6	9.43
CC(C)OC(=O)N1CCN(C(=O)[C@@H]2CN(C(C)(C)C)C[C@H]2c2ccc(F)cc2F)CCC[C@H]1c1ccc(Cl)cc1 [Example 53]	14.7	58.5	27.7
CCC(=O)N1CCN(C(=O)[C@@H]2CN(c3ccc(=O)n(C)n3)C[C@H]2c2ccc(F)cc2F)CCC[C@H]1c1ccc(Cl)cc1 [Example 35]	5.29	68.3	–
CCC(=O)N1CCN(C(=O)[C@@H]2CN(c3ccc(=O)n(C)n3)C[C@H]2c2ccc(Cl)cn2)CCC[C@H]1c1ccc(Cl)cc1 [Example 38]	6.9	–	–
CC(=O)N1CCN(C(=O)[C@@H]2CN(C(C)(C)C)C[C@H]2c2ccc(F)cc2F)CCC1c1ccc(F)cc1F (mixture of isomers) [Example 18]	152	24.2	34
COc1ccc([C@@H]2CN(c3ccc(=O)n(C)n3)C[C@H]2C(=O)N2CCC[C@@H](c3ccc(Cl)cc3)N(C(=O)CC(F)(F)F)CC2)c(F)c1 [Example 30, 6-[(3S,4R)-3-{[5S-(4-chlorophenyl)-4-(3,3,3-trifluoropropanoyl)-1,4-diazocan-1-yl]carbonyl}-4-(2-fluoro-4-methoxyphenyl)pyrrolidin-1-yl]-2-methylpyridazin-3(2H)-one]	6.01	36.8	18.2
COC(=O)N1CCN(C(=O)[C@@H]2CN(c3ccc4nncn4n3)C[C@H]2c2ccc(F)cc2F)CCC[C@H]1c1ccc(Cl)cc1 [Example 96]	0.852	76.9	31.3
CC(C)(C)N1C[C@@H](C(=O)N2CCC(c3ccc(Cl)cc3)N(S(C)(=O)=O)CC2)[C@H](c2ccc(F)cc2F)C1 (mixture of isomers) [Example 85]	404	30.5	48.4
CC(=O)N1CCN(C(=O)C2CN(c3ccc(C#N)nn3)C[C@H]2c2ccc(F)cc2F)CCC[C@H]1c1ccc(Cl)cc1 (stereo partly shown) [Example 21]	–	35.1	–
COC(=O)N1CCN(C(=O)[C@@H]2CN(C(C)(C)C)C[C@H]2c2ccc(F)cc2F)CCC1c1ccc(F)cc1F (mixture of isomers) [Example 54]	44.8	–	32.8
CC(C)(C)N1C[C@@H](C(=O)N2CCC[C@@H](c3ccc(Cl)cc3)N(C(=O)C3CCOCC3)CC2)[C@H](c2ccc(F)cc2F)C1 [Example 59, 1-{[(3S,4R)-1-tert-butyl-4-(2,4-difluorophenyl)pyrrolidin-3-yl]carbonyl}-5S-(4-chlorophenyl)-4-(tetrahydro-2H-pyran-4-ylcarbonyl)-1,4-diazocane]	25.2	38.4	55.4
Cn1nc(N2C[C@@H](C(=O)N3CCC[C@@H](c4ccc(Cl)cc4)N(C(=O)C4CC4)CC3)[C@H](c3ccc(F)cc3F)C2)ccc1=O [Example 34]	3.9	69.2	30.9
COC(=O)N1CCN(C(=O)[C@@H]2CN(C(C)(C)C)C[C@H]2c2ccc(F)cc2F)CCC1c1ccc(Cl)cc1 (mixture of isomers) [Example 86]	97.2	20.3	29.6
COc1ccc([C@@H]2CN(c3ccc(C#N)nn3)C[C@H]2C(=O)N2CCC[C@@H](c3ccc(Cl)cc3)N(C(=O)CC(F)(F)F)CC2)c(F)c1 [Example 26]	8.31	20.4	30.2
CC(=O)N1CCN(C(=O)[C@@H]2CN(c3ccc(C#N)nn3)C[C@H]2c2ccc(F)cc2F)CCC[C@H]1c1ccc(Cl)cc1 [Example 21]	9.42	–	–
N#Cc1ccc(N2C[C@@H](C(=O)N3CCC[C@@H](c4ccc(Cl)cc4)N(C(=O)CC(F)(F)F)CC3)[C@H](c3ccc(F)cc3F)C2)nn1 [Example 58]	22.1	46.5	–
CC(C)C(=O)N1CCN(C(=O)[C@@H]2CN(c3ccc(C#N)nn3)C[C@H]2c2ccc(F)cc2F)CCC[C@H]1c1ccc(Cl)cc1 [Example 22]	5.25	59.2	–
COc1ccc([C@@H]2CN(c3ccc(C#N)nn3)C[C@H]2C(=O)N2CCC[C@@H](c3ccc(Cl)cc3)N(C(=O)C3CC3)CC2)c(F)c1 [Example 23]	4.31	56.2	29.1
CC(C)(C)N1C[C@@H](C(=O)N2CCC[C@@H](c3ccc(Cl)cc3)N(C(=O)C3N=CC=N3)CC2)[C@H](c2ccc(F)cc2F)C1 [Example 64]	247	–	–
CC(=O)N1CCN(C(=O)[C@@H]2CN(c3ccc(=O)n(C)n3)C[C@H]2c2ccc(Cl)cn2)CCC[C@H]1c1ccc(Cl)cc1 [Example 36]	7.67	–	–
COc1ccc([C@@H]2CN(c3ccc(=O)n(C)n3)C[C@H]2C(=O)N2CCC[C@@H](c3ccc(Cl)cc3)N(C(C)=O)CC2)c(F)c1 [Example 27]	5.02	25.7	20.4
COc1ccc([C@@H]2CN(c3ccc(C#N)nn3)C[C@H]2C(=O)N2CCC[C@@H](c3ccc(Cl)cc3)N(C(=O)C(C)C)CC2)c(F)c1 [Example 24]	2.27	43.4	37.3
COC(=O)N1CCN(C(=O)C2CN(c3ccc(C#N)nn3)C[C@H]2c2ccc(OC)cc2F)CCC[C@@H]1c1ccc(Cl)cc1 (stereo partly shown) [Example 88]	–	21.5	40.1
CC(C)(C)N1C[C@@H](C(=O)N2CCC(c3ccc(F)cc3F)N(S(C)(=O)=O)CC2)[C@H](c2ccc(F)cc2F)C1 (mixture of isomers) [Example 43]	397	–	52
CCOC(=O)N1CCN(C(=O)[C@@H]2CN(C(C)(C)C)C[C@H]2c2ccc(F)cc2F)CCC[C@H]1c1ccc(Cl)cc1 [Example 52]	35.2	0	–
COC(=O)N1CCN(C(=O)C2CN(c3ccc(C#N)nn3)CC2c2ccc(OC)cc2F)CCC[C@H]1c1ccc(Cl)cc1 (stereo partly shown) [Example 89]	–	28.5	42.9
CC(=O)N1CCN(C(=O)[C@@H]2CN(c3ccc(=O)n(C)n3)C[C@H]2c2ccc(F)cc2F)CCC[C@H]1c1ccc(Cl)cc1 [Example 32]	6.63	–	14.8
CC(=O)N1CCN(C(=O)[C@@H]2CN(C(C)(C)C)C[C@H]2c2ccc(F)cc2F)CCC1c1ccc(Cl)cc1 (mixture of isomers) [Example 84]	206	–	27.9
